From publication PMC8296573, “Synthesis and Biological Evaluation of Fingolimod Derivatives as Antibacterial Agents” (ACS Omega, 2021)
Values after ≈ are worked out from the molar mass of the structure shown. Where two headings read alike, the source gives them in different places.

Tests used:
P. aeruginosa ATCC 9027 = assay: Antibacterial activity, pre-exposure; format: cell-based, Pseudomonas aeruginosa; conditions: for Average inhibition %, biofilms viability / Average inhibition %, planktonic cells viability / inhibition at 50 µM / inhibition at 100 µM / inhibition at 150 µM / inhibition at 200 µM: P. aeruginosa ATCC 9027, pre-exposure, ± SD; for inhibition at 50 µM / inhibition at 100 µM / inhibition at 150 µM / inhibition at 200 µM: ATCC9027
Procedure: (§1) The antimicrobial activity was assessed in a similar way for the initial screening and the dose–response evaluation against different bacterial strains. With the exception of the post-exposure experiment, the compounds were added to the wells along with the bacteria to test the ability of compounds to prevent bacterial growth and biofilm formation (pre-exposure). The compounds were diluted in DMSO and plated directly in 96-well plates before adding the bacterial culture, and plates were incubated for 18 h under aerobic conditions at 37 °C with shaking (220 rpm). The antibacterial activity of the compounds was assessed on planktonic cells and biofilms separately using two different measurements for each: optical density (turbidity) and resazurin reduction (viability) on planktonic cells and resazurin followed by a crystal violet staining assay (total biomass) on biofilms, as described in the following sections.
(§2) The resazurin staining was performed according to the protocol previously optimized with a few modifications.[46] Briefly, the planktonic solution was first transferred into a new 96-well plate and the OD of the planktonic solution was measured using a Varioskan LUX Multimode microplate reader (Thermo Scientific, Vantaa, Finland). Then, 10 μL of a 400 μM resazurin (R7017, Sigma-Aldrich, St. Louis, MO) diluted in phosphate-buffered saline (PBS) (Thermo Fisher Scientific, MA) was added to the wells (for a final resazurin concentration of 20 μM). The plate was incubated in the dark with shaking (220 rpm) for about 3–10 min at room temperature with S. aureus and A. baumannii (until the bacteria controls turned pink) or for 20 min at 37 °C with P. aeruginosa. Fluorescence was measured at λex = 560 nm and λem = 590 nm using the top optics of the Varioskan LUX Multimode microplate reader. The planktonic plate was then discarded. The original challenge plate containing the biofilms was washed once with PBS, and 200 μL of a 20 μM resazurin solution was added to the wells. The plate was incubated in the dark at 37 °C with shaking (220 rpm) for 30 min with S. aureus, 60 min with A. baumannii, and 90 min with P. aeruginosa. Fluorescence was measured as described for the planktonic solution. The biofilms were next treated with crystal violet staining.
(§3) After removing the resazurin solution from the plate, biofilms were fixed with ethanol 100% for 15 min at room temperature. Ethanol was then removed, and the biofilms were left to air-dry completely at RT. Crystal violet, diluted to 1:100 in deionized water from the 2.3% commercial solution (HT90132, Sigma-Aldrich, St. Louis, MO), was added to the wells and, after a 5 min incubation with the dye, the biofilms were washed twice with deionized water and left to air-dry for about 10 min. The dye was solubilized in ethanol 100% for 1 h, and absorbance was measured at 595 nm using a Multiskan Sky microplate spectrophotometer (Thermo Scientific, Vantaa, Finland).

S. aureus ATCC 25923 [1] = assay: Antibacterial activity, pre-exposure (planktonic cells and biofilm formation); format: cell-based, Staphylococcus aureus; conditions: for MIC / inhibition at 5 µM / inhibition at 10 µM / inhibition at 15 µM / inhibition at 25 µM: Staphylococcus aureus, ATCC25923; for inhibition at 5 µM / inhibition at 10 µM / inhibition at 15 µM / inhibition at 25 µM / Average inhibition %, biofilms viability / Average inhibition %, planktonic cells viability: pre-exposure, ± SD
Procedure: as §1, §2, §3

S. aureus ATCC 25923 [2] = assay: Antibacterial activity, post-exposure on preformed 18-h-old biofilms; format: cell-based, Staphylococcus aureus; conditions: for Average inhibition %, biofilms viability / Average inhibition %, planktonic cells viability / inhibition at 25 µM / inhibition at 50 µM / inhibition at 100 µM / inhibition at 200 µM: ± SD; for inhibition at 25 µM / inhibition at 50 µM / inhibition at 100 µM / inhibition at 200 µM: Staphylococcus aureus; for inhibition at 25 µM: ATCC25923, 25 µM; for inhibition at 50 µM: ATCC25923, 50 µM; for inhibition at 100 µM: ATCC25923, 100 µM; for inhibition at 200 µM: ATCC25923, 200 µM
Procedure: For the post-exposure experiment, bacteria were grown with no compounds in the same conditions for 18 h, after which the media was changed, and compounds were added on the preformed biofilms. The plates were then incubated in the same conditions for an additional 24 h before proceeding to the staining assays.
as §2, §3

A. baumannii NCTC 13423 = assay: Antibacterial activity, pre-exposure; format: cell-based, Acinetobacter baumannii; conditions: for Average inhibition %, biofilms viability / Average inhibition %, planktonic cells viability / inhibition at 10 µM / inhibition at 15 µM / inhibition at 25 µM / inhibition at 50 µM: A. baumannii NCTC 13423, pre-exposure, ± SD; for inhibition at 10 µM / inhibition at 15 µM / inhibition at 25 µM / inhibition at 50 µM / MIC: Acinetobacter baumannii, NCTC13423
Procedure: as §1, §2, §3

[3] = 10 µM, read-out: Average inhibition %, biofilms biomass
[4] = 10 µM, read-out: Average inhibition %, planktonic cells turbidity
[5] = 15 µM, read-out: Average inhibition %, biofilms biomass
[6] = 15 µM, read-out: Average inhibition %, planktonic cells turbidity
[7] = 25 µM, read-out: Average inhibition %, biofilms biomass
[8] = 25 µM, read-out: Average inhibition %, planktonic cells turbidity
[9] = read-out: Average inhibition %, biofilms biomass
[10] = read-out: Average inhibition %, planktonic cells turbidity

SMILES: CCCCCCCCc1ccc(C(O)CC(N)(CO)CO)cc1 (stereo not drawn) [Compound 54, 3-Amino-3-(hydroxymethyl)-1-(4-octylphenyl)butane-1,4-diol]
- Average inhibition %, biofilms viability (P. aeruginosa ATCC 9027; 50 µM): 22.2 ± 26.9%
- Average inhibition %, planktonic cells viability (P. aeruginosa ATCC 9027; 50 µM): 74 ± 11.2%
- Average inhibition %, biofilms viability (P. aeruginosa ATCC 9027; 100 µM): 98.9 ± 1.5%
- Average inhibition %, planktonic cells viability (P. aeruginosa ATCC 9027; 100 µM): 99.6 ± 0%
- Average inhibition %, biofilms viability (P. aeruginosa ATCC 9027; 150 µM): 97.5 ± 3.9%
- Average inhibition %, planktonic cells viability (P. aeruginosa ATCC 9027; 150 µM): 99.2 ± 0.8%
- Average inhibition %, biofilms viability (P. aeruginosa ATCC 9027; 200 µM): 99.7 ± 0.1%
- Average inhibition %, planktonic cells viability (P. aeruginosa ATCC 9027; 200 µM): 99.7 ± 0.1%
- MIC (P. aeruginosa ATCC 9027; Pseudomonas aeruginosa, ATCC9027, pre-exposure, Inactive = no activity up to 200 μM, > = some inhibition but no MIC reached, read-out: MIC P. aeruginosa ATCC 9027): 50 to 100 µM (≈ 16.2 to 32.3 µg/mL)
- MIC (P. aeruginosa ATCC 9027; Pseudomonas aeruginosa, ATCC9027, supplementary molecular formula strings sheet, read-out: MIC (P. aeruginosa)): 100 µM (≈ 32.3 µg/mL)
- inhibition at 50 µM (P. aeruginosa ATCC 9027; Pseudomonas aeruginosa, 50 µM, read-out: Average inhibition %, biofilms biomass): 46.4 ± 22%
- inhibition at 50 µM (P. aeruginosa ATCC 9027; Pseudomonas aeruginosa, 50 µM, read-out: Average inhibition %, planktonic cells turbidity): 76.9 ± 11.6%
- inhibition at 100 µM (P. aeruginosa ATCC 9027; Pseudomonas aeruginosa, 100 µM, read-out: Average inhibition %, biofilms biomass): 96.7 ± 1.1%
- inhibition at 100 µM (P. aeruginosa ATCC 9027; Pseudomonas aeruginosa, 100 µM, read-out: Average inhibition %, planktonic cells turbidity): 98.2 ± 0.5%
- inhibition at 150 µM (P. aeruginosa ATCC 9027; Pseudomonas aeruginosa, 150 µM, read-out: Average inhibition %, biofilms biomass): 90.9 ± 7.2%
- inhibition at 150 µM (P. aeruginosa ATCC 9027; Pseudomonas aeruginosa, 150 µM, read-out: Average inhibition %, planktonic cells turbidity): 94.4 ± 1.4%
- inhibition at 200 µM (P. aeruginosa ATCC 9027; Pseudomonas aeruginosa, 200 µM, read-out: Average inhibition %, biofilms biomass): 94.1 ± 1.7%
- inhibition at 200 µM (P. aeruginosa ATCC 9027; Pseudomonas aeruginosa, 200 µM, read-out: Average inhibition %, planktonic cells turbidity): 94.1 ± 1.3%
- MIC (P. aeruginosa ATCC 9027; pre-exposure, Inactive = no activity up to 200 μM, > = some inhibition but no MIC reached, read-out: MIC P. aeruginosa ATCC 9027): 100 µM (≈ 32.3 µg/mL)
- MIC (S. aureus ATCC 25923 [1]; lowest concentration with no visible growth (>90% inhibition of turbidity and viability of planktonic cells), 18 h, read-out: MIC S. aureus ATCC 25923): 25 µM (≈ 8.09 µg/mL)
- inhibition at 5 µM (S. aureus ATCC 25923 [1]; 5 µM, read-out: Average inhibition %, biofilms biomass): 21.2 ± 18.4%
- inhibition at 5 µM (S. aureus ATCC 25923 [1]; 5 µM, read-out: Average inhibition %, planktonic cells turbidity): 34.1 ± 32.1%
- inhibition at 10 µM (S. aureus ATCC 25923 [1]; [3]): 23.7 ± 8.7%
- inhibition at 10 µM (S. aureus ATCC 25923 [1]; [4]): 38.3 ± 27%
- inhibition at 15 µM (S. aureus ATCC 25923 [1]; [5]): 39.3 ± 23.6%
- inhibition at 15 µM (S. aureus ATCC 25923 [1]; [6]): 44.1 ± 23.3%
- inhibition at 25 µM (S. aureus ATCC 25923 [1]; [7]): 93.7 ± 4.1%
- inhibition at 25 µM (S. aureus ATCC 25923 [1]; [8]): 98.8 ± 1%
- MIC (S. aureus ATCC 25923 [1]; read-out: MIC (S. aureus)): 25 µM (≈ 8.09 µg/mL)
- Average inhibition %, biofilms viability (S. aureus ATCC 25923 [1]; 5 µM): 21.2 ± 4.7%
- Average inhibition %, planktonic cells viability (S. aureus ATCC 25923 [1]; 5 µM): 11.9 ± 20.6%
- Average inhibition %, biofilms viability (S. aureus ATCC 25923 [1]; 10 µM): 28.3 ± 15.2%
- Average inhibition %, planktonic cells viability (S. aureus ATCC 25923 [1]; 10 µM): 10.2 ± 17.7%
- Average inhibition %, biofilms viability (S. aureus ATCC 25923 [1]; 15 µM): 28.6 ± 10.1%
- Average inhibition %, planktonic cells viability (S. aureus ATCC 25923 [1]; 15 µM): 8.5 ± 14.7%
- Average inhibition %, biofilms viability (S. aureus ATCC 25923 [1]; 25 µM): 99.5 ± 0.6%
- Average inhibition %, planktonic cells viability (S. aureus ATCC 25923 [1]; 25 µM): 99.8 ± 0.1%
- Average inhibition %, biofilms viability (S. aureus ATCC 25923 [2]; 25 µM): 11.2 ± 0.8%
- Average inhibition %, planktonic cells viability (S. aureus ATCC 25923 [2]; 25 µM): 15 ± 26.1%
- Average inhibition %, biofilms viability (S. aureus ATCC 25923 [2]; 50 µM): 23.6 ± 12.7%
- Average inhibition %, planktonic cells viability (S. aureus ATCC 25923 [2]; 50 µM): 0 ± 0%
- Inhibition of viability and total biomass of preformed biofilms (S. aureus ATCC 25923 [2]; 100 μM): at least 70%
- Average inhibition %, biofilms viability (S. aureus ATCC 25923 [2]; 100 µM): 82.1 ± 27.3%
- Average inhibition %, planktonic cells viability (S. aureus ATCC 25923 [2]; 100 µM): 97.9 ± 3.4%
- Average inhibition %, biofilms viability (S. aureus ATCC 25923 [2]; 200 µM): 99.8 ± 0.2%
- Average inhibition %, planktonic cells viability (S. aureus ATCC 25923 [2]; 200 µM): 100.1 ± 0.2%
- inhibition at 25 µM (S. aureus ATCC 25923 [2]; [9]): 44 ± 14.9%
- inhibition at 25 µM (S. aureus ATCC 25923 [2]; [10]): 5.1 ± 6.4%
- inhibition at 50 µM (S. aureus ATCC 25923 [2]; [9]): 55.3 ± 3%
- inhibition at 50 µM (S. aureus ATCC 25923 [2]; [10]): 17.4 ± 3.4%
- inhibition at 100 µM (S. aureus ATCC 25923 [2]; [9]): 83.5 ± 19%
- inhibition at 100 µM (S. aureus ATCC 25923 [2]; [10]): 82.6 ± 4.7%
- inhibition at 200 µM (S. aureus ATCC 25923 [2]; [9]): 86.4 ± 3.9%
- inhibition at 200 µM (S. aureus ATCC 25923 [2]; [10]): 83.6 ± 3.7%
- Average inhibition %, biofilms viability (A. baumannii NCTC 13423; 10 µM): 0 ± 0%
- Average inhibition %, planktonic cells viability (A. baumannii NCTC 13423; 10 µM): 4.7 ± 2.4%
- Average inhibition %, biofilms viability (A. baumannii NCTC 13423; 15 µM): 1.2 ± 2.1%
- Average inhibition %, planktonic cells viability (A. baumannii NCTC 13423; 15 µM): 6.4 ± 4.2%
- Average inhibition %, biofilms viability (A. baumannii NCTC 13423; 25 µM): 6.1 ± 6.8%
- Average inhibition %, planktonic cells viability (A. baumannii NCTC 13423; 25 µM): 3.3 ± 4.4%
- Average inhibition %, biofilms viability (A. baumannii NCTC 13423; 50 µM): 100.2 ± 0.8%
- Average inhibition %, planktonic cells viability (A. baumannii NCTC 13423; 50 µM): 99.4 ± 0.2%
- inhibition at 10 µM (A. baumannii NCTC 13423; [3]): 2.3 ± 4.1%
- inhibition at 10 µM (A. baumannii NCTC 13423; [4]): 0%
- inhibition at 15 µM (A. baumannii NCTC 13423; [5]): 1.5 ± 1.3%
- inhibition at 15 µM (A. baumannii NCTC 13423; [6]): 0%
- inhibition at 25 µM (A. baumannii NCTC 13423; [7]): 6.1 ± 8.1%
- inhibition at 25 µM (A. baumannii NCTC 13423; [8]): 0%
- inhibition at 50 µM (A. baumannii NCTC 13423; 50 µM, read-out: Average inhibition %, biofilms biomass): 81.2 ± 8.8%
- inhibition at 50 µM (A. baumannii NCTC 13423; 50 µM, read-out: Average inhibition %, planktonic cells turbidity): 99 ± 1%
- MIC (A. baumannii NCTC 13423; pre-exposure, Inactive = no activity up to 50 μM, > = some inhibition but no MIC reached, read-out: MIC A. baumannii NCTC 13423): 50 µM (≈ 16.2 µg/mL)
- MIC (A. baumannii NCTC 13423; supplementary molecular formula strings sheet, read-out: MIC (A. baumannii)): 50 µM (≈ 16.2 µg/mL)
